This passage reports Ki and IC50 results from patent publication US20040097594A1 (priority 1998, published 2004).

One assay addresses HIV-1 protease (Human immunodeficiency virus type 1 group M subtype B, UniProt P04585). Briefly: biochemical.
The test system of another assay is HIV-1 (strain IIIB). Briefly: microbe, parasite or virus in culture. In kind it is cell-based. The following applies: lower line of each compound's entry, read-out: IC50 (MT-4 cells).
Where [1] appears, read: HIV-1 protease, upper line of each compound's entry, read-out: Ki (enzyme).
The mark [2] stands for this setting: Human immunodeficiency virus 1, 120 h, MT4 cells infected with HIV-1 strain IIIB, 5 days.

Like-named read-outs stand apart in the source and are kept apart here.

In general, Ki refers to the equilibrium dissociation constant of an inhibitor or competing ligand from its target. For orientation: IC50 means the concentration at which inhibition is half-maximal. As for `COc1ccc(S(=O)(=O)N(C[C@@H](O)[C@H](Cc2ccccc2)NC(=O)C(C)CS(C)(=O)=O)OC2CCCC2)cc1` (stereo partly drawn) [Compound 115, 1N-(3-Methylsulfonylisobutyryl)-(1S,2R)-1-benzyl-3-(cyclopentyloxy)[4-methoxyphenylsulfonyl]amino-2-hydroxypropylamine], the Ki at HIV-1 protease (setting [1]) is above 100 nM. Besides, the IC50 in the assay with HIV-1 (strain IIIB) (setting [2]) lay within 500 to 1000 nM.

For the compound `NCCNc1cccc(S(=O)(=O)N(CC(O)C(Cc2ccccc2)NC(=O)OC2COC3OCCC23)OC2CCCC2)c1` [Compound 83, (3R,3aS,6aR)hexahydrofuro[2,3-b]furan-3-yl N-(1S,2R)-3-[(3[(2-aminoethyl)amino]phenylsulfonyl)(cyclopentyloxy)amino]-1-benzyl-2-hydroxypropylcarbamate and (3S,3aR,6aS)hexahydrofuro[2,3-b]furan-3-yl N-(1S,2R)-3-[(3[(2-aminoethyl)amino]phenylsulfonyl)(cyclopentyloxy)amino]-1-benzyl-2-hydroxypropylcarbamate], on HIV-1 protease (setting [1]), the Ki is below 1 nM. Besides, the IC50 in the assay with HIV-1 (strain IIIB) (setting [2]) was 100 to 500 nM.

With `N#CCNc1cccc(S(=O)(=O)N(CC(O)C(Cc2ccccc2)NC(=O)OC2COC3OCCC23)OC2CCCC2)c1` [Compound 86, (3R,3aS,6aR)hexahydrofuro[2,3-b]furan-3-yl N-(1S,2R)-1-benzyl-3-[(3-[(cyanomethyl)amino]phenylsulfonyl)(cyclopentyloxy)amino]-2-hydroxypropylcarbamate and (3S,3aR,6aS)hexahydrofuro[2,3-b]furan-3-yl N-(1S,2R)-1-benzyl-3-[(3-[(cyanomethyl)amino]phenylsulfonyl)(cyclopentyloxy)amino]-2-hydroxypropylcarbamate], on HIV-1 protease (setting [1]), the Ki is below 1 nM. The IC50 in the assay on HIV-1 (strain IIIB) (setting [2]) was at most 100 nM.

For `CON(C)C(=O)COc1cccc(S(=O)(=O)N(C[C@@H](O)[C@H](Cc2ccccc2)NC(=O)OC2CO[C@H]3OCC[C@@H]23)OC2CCCC2)c1` (stereo partly drawn) [Compound 137, (3R,3aS,6aR)hexahydrofuro[2,3-b]furan-3-yl N-((1S,2R)-1-benzyl-3-(cyclopentyloxy)[(3-2-[methoxy(methyl)amino]-2-oxoethoxyphenyl)sulfonyl]amino-2-hydroxypropyl)carbamate], the Ki on HIV-1 protease (setting [1]) is below 1 nM. Also, in the assay on HIV-1 (strain IIIB) (setting [2]), the IC50 was at most 100 nM.

As to `NC(=O)COc1cccc(S(=O)(=O)N(C[C@@H](O)[C@H](Cc2ccccc2)NC(=O)OC2CO[C@H]3OCC[C@@H]23)OC2CCCC2)c1` (stereo partly drawn) [Compound 136, (3R,3aS,6aR)hexahydrofuro[2,3-b]furan-3-yl N-(1S,2R)-3-[[3-(2-amino-2-oxoethoxy)phenyl]sulfonyl(cyclopentyloxy)amino]-1-benzyl-2-hydroxypropylcarbamate], the inhibition constant (Ki) at HIV-1 protease (setting [1]) is below 1 nM. In the assay with HIV-1 (strain IIIB) (Human immunodeficiency virus 1, IIIB, MT4, 120 h, […]), the IC50 was at most 100 nM.

Turning to `COc1ccc(S(=O)(=O)N(C[C@@H](O)[C@H](Cc2ccccc2)NC(=O)OC(C)(C)C)OCC2CCCCC2)cc1` [Compound 16, tert-butyl N-((1S,2R)-1-benzyl-3-(cyclohexylmethoxy)[(4-methoxyphenyl)sulfonyl]amino-2-hydroxypropyl)carbamate], on HIV-1 protease (setting [1]), the Ki was 10 to 100 nM. In the assay on HIV-1 (strain IIIB) (setting [2]), the IC50 is above 1000 nM.

Regarding `COc1ccc(S(=O)(=O)N(C[C@@H](O)[C@H](Cc2ccccc2)NC(=O)O[C@H]2CCOC2)OC2CCCC2)cc1` [Compound 47, (3S)tetrahydro-3-furanyl N-((1S,2R)-1-benzyl-3-(cyclopentyloxy)[(4-methoxyphenyl)sulfonyl]amino-2-hydroxypropyl)carbamate], at HIV-1 protease (setting [1]), the Ki is below 1 nM. Moreover, in the assay with HIV-1 (strain IIIB) (setting [2]), the IC50 fell in the range of 500 to 1000 nM.

Regarding `CCC(C)ON(C[C@@H](O)[C@H](Cc1ccccc1)NC(=O)OC1COCOC1)S(=O)(=O)c1ccc(OC)cc1` (stereo partly drawn) [Compound 69, 1,3-dioxan-5-yl N-((1S,2R)-1-benzyl-3-sec-butoxy[(4-methoxyphenyl)sulfonyl]amino-2-hydroxypropyl)carbamate], the Ki at HIV-1 protease (setting [1]) was below 1 nM. Besides, the IC50 in the assay with HIV-1 (strain IIIB) (setting [2]) lay within 100 to 500 nM.

Consider `Nc1ccc(S(=O)(=O)N(CC(O)C(Cc2ccccc2)NC(=O)OC2COC3OCCC23)OC2CCCC2)cc1` [Example 171, (3R,3aS,6aR)hexahydrofuro[2,3-b]furan-3-yl N-(1S,2R)-3-[[(4-aminophenyl)sulfonyl](cyclopentyloxy)amino]-1-benzyl-2-hydroxypropyl carbamate], for which the Ki at HIV-1 protease (setting [1]) is below 1 nM. In addition, the IC50 in the assay on HIV-1 (strain IIIB) (setting [2]) was at most 100 nM.

In the case of `COC(=O)Nc1nc2cc(S(=O)(=O)N(C[C@@H](O)[C@H](Cc3ccccc3)NC(=O)[C@H](CC(N)=O)NC(=O)c3ccc4ccccc4n3)OC3CCCC3)ccc2[nH]1` [Compound 51, (2S)-4-Amino-4-oxo-2-[(2-quinolinylcarbonyl)amino]butanamido N-(1S,2R)-1-benzyl-3-[(cyclopentyloxy)(2-{(methoxycarbonyl)amino]-1H-benzimidazol-5-ylsulfonyl)amino]-2-hydroxypropylcarbamate], the Ki at HIV-1 protease (setting [1]) was below 1 nM. Also, the IC50 in the assay on HIV-1 (strain IIIB) (setting [2]) lay in the range of 100 to 500 nM.

`CNc1cccc(S(=O)(=O)N(C[C@@H](OP(=O)(O)O)[C@H](Cc2ccccc2)NC(=O)O[C@H]2CO[C@H]3OCC[C@H]32)OC2CCCC2)c1` [Compound 119, Phosphate ester of (3R,3aS,6aR)hexahydrofuro[2,3-b]furan-3-yl N-(1S,2R)-3-[[(3-N-methylaminophenyl)sulfonyl](cyclopentyloxy)amino]-1-benzyl-2-hydroxypropylcarbamate]: the Ki on HIV-1 protease (setting [1]) was above 100 nM. Besides, the IC50 with HIV-1 (strain IIIB) (setting [2]) is above 1000 nM.

Turning to `COC(=O)Nc1nc2cc(S(=O)(=O)N(C[C@@H](O)[C@H](Cc3ccccc3)NC(=O)OC3COCOC3)OC3CCCC3)ccc2[nH]1` [Compound 55, 1,3-Dioxan-5-yl N-(1S,2R)-1-benzyl-3-[(cyclopentyloxy)(2-{(methoxycarbonyl)amino]-1H-benzimidazol-5-ylsulfonyl)amino]-2-hydroxypropylcarbamate], the Ki at HIV-1 protease (setting [1]) is below 1 nM. Besides, in the assay on HIV-1 (strain IIIB) (setting [2]), the IC50 was at most 100 nM.

In the case of `COc1ccc(S(=O)(=O)N(C[C@@H](O)[C@H](Cc2ccccc2)NC(=O)O[C@@H]2CO[C@H]3OCC[C@H]32)OC2CCCC2)cc1` [Compound 117], the Ki at HIV-1 protease (setting [1]) was above 100 nM. The IC50 in the assay on HIV-1 (strain IIIB) (setting [2]) lay in the range of 500 to 1000 nM.

For `O=C(N[C@@H](Cc1ccccc1)[C@H](O)CN(OC1CCCC1)S(=O)(=O)c1cccc(OCC(=O)N2CCOCC2)c1)O[C@H]1CO[C@H]2OCC[C@H]21` [Compound 135, (3R,3aS,6aR)hexahydrofuro[2,3-b]furan-3-yl N-[(1S,2R)-1-benzyl-3-((cyclopentyloxy)[3-(2-morpholino-2-oxoethoxy)phenyl]sulfonylamino)-2-hydroxypropyl]carbamate], the Ki at HIV-1 protease (setting [1]) was 1 to 10 nM. Besides, the IC50 in the assay with HIV-1 (strain IIIB) (setting [2]) was at most 100 nM.

Compound `COc1ccc(S(=O)(=O)N(C[C@@H](O)[C@H](Cc2ccccc2)NC(=O)O[C@H]2CCOC2)OC2CCCCC2)cc1` [Compound 64, (3S)tetrahydro-3-furanyl N-((1S,2R)-1-benzyl-3-(cyclohexyloxy)[(4-methoxyphenyl)sulfonyl]amino-2-hydroxypropyl)carbamate] returned a Ki at HIV-1 protease below 1 nM. Besides, in the assay on HIV-1 (strain IIIB) (setting [2]), the IC50 was above 1000 nM.

For the compound `O=C(N[C@@H](Cc1ccccc1)[C@H](O)CN(OC1CCCC1)S(=O)(=O)c1cccc(OCCO)c1)O[C@H]1CO[C@H]2OCC[C@H]21` [Compound 97, (3R,3aS,6aR)hexahydrofuro[2,3-b]furan-3-yl N-[(1S,2R)-1-benzyl-3-((cyclopentyloxy) [3-(2-hydroxyethoxy)phenyl]sulfonylamino)-2-hydroxypropyl]carbamate], the Ki at HIV-1 protease (setting [1]) was below 1 nM. Further, the IC50 with HIV-1 (strain IIIB) (setting [2]) is at most 100 nM.

In the case of `COc1ccc(S(=O)(=O)N(C[C@@H](O)[C@H](Cc2ccccc2)NC(=O)OC(C)(C)C)Oc2ccccc2)cc1` [Compound 17, tert-butyl N-(1S,2R)-1-benzyl-2-hydroxy-3-[[(4-methoxyphenyl)sulfonyl](phenoxy)amino]propylcarbamate], the Ki at HIV-1 protease (setting [1]) fell in the range of 10 to 100 nM. For the same compound, the IC50 with HIV-1 (strain IIIB) (setting [2]) was above 1000 nM.

Regarding `COc1ccc(S(=O)(=O)N(C[C@@H](O)[C@H](Cc2ccccc2)NC(=O)O[C@H]2CO[C@@H]3OCC[C@@H]32)OC2CCCC2)cc1` [Compound 116], on HIV-1 protease (setting [1]), the inhibition constant (Ki) is above 100 nM. Further, the IC50 in the assay on HIV-1 (strain IIIB) (setting [2]) was 500 to 1000 nM.

On to `CCC(C)ON(C[C@@H](O)[C@H](Cc1ccccc1)NC(=O)OC1CO[C@H]2OCC[C@@H]12)S(=O)(=O)c1ccc(OC)cc1` (stereo partly drawn) [Compound 68, (3R,3aS,6aR)hexahydrofuro[2,3-b]furan-3-yl N-((1S,2R)-1-benzyl-3-sec-butoxy[(4-methoxyphenyl)sulfonyl]amino-2-hydroxypropyl)carbamate], for which the Ki on HIV-1 protease (setting [1]) is below 1 nM. Further, the IC50 with HIV-1 (strain IIIB) (setting [2]) was at most 100 nM.

In the case of `COc1ccc(S(=O)(=O)N(C[C@@H](O)[C@H](Cc2ccccc2)NC(=O)[C@H](CC(N)=O)NC(=O)c2ccc3ccccc3n2)OC2CCCC2)cc1` [Compound 50], the Ki at HIV-1 protease (setting [1]) was below 1 nM. For the same compound, in the assay on HIV-1 (strain IIIB) (setting [2]), the IC50 is at most 100 nM.

As to `Nc1ccc(S(=O)(=O)N(C[C@@H](O)[C@H](Cc2ccccc2)NC(=O)O[C@H]2CO[C@H]3OCC[C@H]32)OC2CCOCC2)cc1` [Compound 146, (3R,3aS,6aR)hexahydrofuro[2,3-b]furan-3-yl 3-[[(4-aminophenyl)sulfonyl](tetrahydro-2H-pyran-4-yloxy)amino]-1-benzyl-2-hydroxypropylcarbamate], the Ki at HIV-1 protease (setting [1]) is below 1 nM. The IC50 in the assay with HIV-1 (strain IIIB) (setting [2]) is at most 100 nM.

In the case of `COc1ccc(S(=O)(=O)N(C[C@@H](O)[C@H](Cc2ccccc2)NC(=O)OC2CO[C@H]3OCC[C@@H]23)OC2CCOCC2)cc1` (stereo partly drawn) [Compound 73, (3R,3aS,6aR)hexahydrofuro[2,3-b]furan-3-yl N-(1S,2R)-1-benzyl-2-hydroxy-3-[[(4-methoxyphenyl)sulfonyl](tetrahydro-2H -pyran-4-yloxy)amino]propylcarbamate], the Ki at HIV-1 protease (setting [1]) is below 1 nM. Moreover, in the assay with HIV-1 (strain IIIB) (setting [2]), the IC50 was at most 100 nM.

`CC(C)ON(C[C@@H](O)[C@H](Cc1ccccc1)NC(=O)OC(C)(C)C)S(=O)(=O)c1cccc(N)c1` [Compound 1]: on HIV-1 protease (setting [1]), the Ki fell in the range of 10 to 100 nM. For the same compound, the IC50 with HIV-1 (strain IIIB) (setting [2]) is above 1000 nM.
